Earlier results in article PMC10088252.
Where two headings read alike, the source gives them in different places.

Columns and labels:
[1] = test system: MET- or ROS1-positive NSCLC; set-up: method as in PMID 31584608; conditions: cited from earlier work
[2] = test system: MET exon 14-mutated or MET-amplified NSCLC; set-up: method as in PMID 32877583; conditions: cited from earlier work
[3] = test system: MET-positive solid tumors; set-up: method as in PMID 31778267; conditions: all patients (76); cited from earlier work
[4] = test system: MET exon 14-mutated NSCLC; set-up: method as in PMID 35720834; conditions: real-world; cited from earlier work
[5] = test system: NSCLC harboring MET exon 14 skipping mutation; set-up: method as in PMID 34166627; conditions: cited from earlier work
[6] = test system: advanced solid tumors with c-MET H-score of ≥ 150; set-up: method as in PMID 30285518; conditions: 16 patients with NSCLC; cited from earlier work
[7] = of 13 patients with brain metastases at baseline

C[C@@H](Oc1cc(-c2cnn(C3CCNCC3)c2)cnc1N)c1c(Cl)ccc(F)c1Cl [crizotinib]
ORR ([1]; MET copy number ≥ 6): 16%
ORR ([1]; MET mutation): 10.7%

CNC(=O)c1ccc(-c2cnc3ncc(Cc4ccc5ncccc5c4)n3n2)cc1F [capmatinib]
ORR ([2]; MET amplification, gene copy number < 10): 7–12%
ORR ([2]; MET amplification, gene copy number ≥ 10, previously treated): 29%
ORR ([2]; MET amplification, gene copy number ≥ 10, treatment-naïve): 40%
TEAE nausea [2]: 45%
TEAE peripheral edema [2]: 51%
patients who discontinued treatment due to TRAEs [2]: 11%
patients achieving intracranial response [2, 7]: Seven
patients with intracranial CR [2, 7]: four
ORR ([2]; patients harboring MET exon 14 skipping mutation): 41%
ORR ([2]; previously treated MET exon 14-mutated NSCLC): 41%
ORR ([2]; treatment-naïve MET exon 14-mutated NSCLC): 68%
DCR [3]: 26%
ORR [4]: 58%
median PFS [4]: 9.5 months

C[C@@H](c1ccc2nccn2c1)n1nnc2ncc(-c3cnn(C)c3)nc21 [savolitinib]
DCR ([5]; 15 MET exon 14-mutated NSCLC patients with brain metastases): 93.3%
grade ≥ 3 TRAE increased ALT [5]: 10%
grade ≥ 3 TRAE increased AST [5]: 13%
grade ≥ 3 TRAE peripheral oedema [5]: 9%
incidence of grade ≥ 3 TRAEs [5]: 46%
ORR ([5]; patients harboring MET exon 14 skipping mutation, FAS): 42.9%

B1: telisotuzumab vedotin (conjugate, chains of the INN, looked up)
VH: QVQLVQSGAEVKKPGASVKVSCKASGYIFTAYTMHWVRQAPGQGLEWMGWIKPNNGLANYAQKFQGRVTMTRDTSISTAYMELSRLRSDDTAVYYCARSEITTEFDYWGQGTLVTVSS
VL: DIVMTQSPDSLAVSLGERATINCKSSESVDSYANSFLHWYQQKPGQPPKLLIYRASTRESGVPDRFSGSGSGTDFTLTISSLQAEDVAVYYCQQSKEDPLTFGGGTKVEIK
modifications: vedotin (MMAE) payload
DCR [6]: 56%
